Laboratory results published in patent publication US20240325353A1, “COMPOUND FOR TREATMENT OF COGNITIVE DISORDERS” (Syndesi Therapeutics SA, priority 2021, published 2024).
Where “and” joins values, the source holds several entries; their conditions need not be identical. Equal entries are not always repeated.

Tests used:
[1] = repeat dose pharmacokinetics in humans; assay type: in vivo, human; conditions: once daily repeat dosing, all doses
[2] = target: T1, SV2A (Rattus norvegicus, UniProt Q02563); experiment: in vivo SV2A receptor occupancy in rats; conditions: ip, 0.1 mg/kg i.p., 60 minutes post administration
T1 construct: from tissue; host or cells: brain of living rats

[3] = anti-convulsant activity in vivo
[4] = target: SV2A (Homo sapiens, UniProt Q7L0J3); experiment: SV2A binding in vitro, displacement of levetiracetam
[5] = rodent preclinical cognitive deficit models; assay type: in vivo; conditions: range of rodent preclinical cognitive deficit models
[6] = target: T2, synaptic vesicle glycoprotein 2A (Homo sapiens, UniProt Q7L0J3); experiment: [11C]-UCB-J PET receptor occupancy after single oral dose, healthy male subjects, with PK/occupancy model; assay type: in vivo; conditions: for receptor occupancy: individual subjects
T2 construct: from tissue; host or cells: brain of living healthy male subjects (PET)
Method: All images were acquired using the PET/MR Scanner: GE Signa TOF PET-MR 3 Tesla with software version MP26. As gamma counter, a 1480 Wizard well type gamma counter met 3-inch NaI crystal was used.
[^11C]-UCB-J is a PET tracer for imaging the synaptic vesicle glycoprotein 2A in the human brain. [^11C]-UCB-J is (4R)-1-{[3-(^11C)Methylpyridin-4-yl]methyl}-4-(3,4,5-trifluorophenyl)pyrrolidin-2-one.
Participants arrived approximately 90 minutes prior to the scheduled scan. This allowed the positioning of all necessary peripheral catheters before the start of the PET scan. Prior to PET imaging, at the PET centre, an indwelling venous cannula was inserted into an antecubital vein of the forearm to inject the radioligand. When required, an indwelling arterial catheter was placed in the radial artery of the opposite arm (if not feasible, can be in same arm) by a trained physician after numbing the area with a local anaesthetic prior to placement to withdraw blood for the measurement of the PET input function. On each PET scan day, no more than 3 skin penetrations per arm and one arterial penetration per arm were permitted before trying in the other arm. The venous catheter was used for the injection of [^11C]-UCB-J. [^11C]UCB-J was administered as an i.v. bolus into the antecubital vein over approximately 20 seconds. The tracer volume was between 6 ml and 12 ml. With the pump system configured to inject 0.33 ml per second, tracer injection time varied between 18 sec and 36 sec. The arterial catheter was used for collection of arterial blood samples and no participant received more than two arterial catheterizations during their participation in the study. An arterial catheter was maintained for up to 2 days depending on evaluation by medical staff. In case two arterial catheters were placed during the study conduct, then placement in alternate wrists was done. If the medical staff decided to remove an arterial catheter at any given time, a new one was placed for a next scan taking into account that no more than two arterial catheterizations per participant were allowed. Participants were asked to void their bladder before the start of each PET scan. Participants were positioned in the PET scanner so that scans were acquired in 3D list-mode in one bed position and the entire brain volume was included in the field of view. At screening and simultaneous with the PET acquisition, both a 3D volumetric T1-weighted BRAVO sequence (plane: sagittal; TE: 3.2 ms; TR: 8.5 ms; TI: 450 ms; Flip Angle: 12; Receiver Bandwidth: 31.2; NEX: 1; voxelsize: 1×1×1 mm) and 3D T2-weighted CUBE FLAIR sequence (plane: sagittal direction; TE: 137 ms; #echoes: 1; echo train length: 190; TR: 8500 ms; […]; Receiver Bandwidth: 31.25; NEX: 1; voxelsize: 1.2×1.3×1.4 mm) were acquired to detect possible structural abnormalities, and serve as an anatomical reference to define ROIs when co-registered with the PET scan. To correct for attenuation, a Zero-Echo Time (ZTE) scan was taken to allow the generation of a MR based attenuation map. At intermediate time points during acquisition, the ZTE sequence was repeated to have additional data for adjusting the MR based attenuation map in case of severe head motion. Next to anatomical MR sequences, eASL and rs-fMRI data were acquired simultaneously with the PET data, to determine regional cerebral blood flow and regional interactions in the brain in a resting or task-negative state. At least one eASL and one rs-fMRI sequence were performed during the PET acquisition but these sequences were repeated if time allowed. The total duration of the emission scan was 90 minutes. PET data will be rebinned in time frames according to the following scheme: • 6×15s-3×30s-3×60s-2×90s-2×3 min-9×5 min-3×10 min […]

T2 sequence (Q7L0J3 whole entry): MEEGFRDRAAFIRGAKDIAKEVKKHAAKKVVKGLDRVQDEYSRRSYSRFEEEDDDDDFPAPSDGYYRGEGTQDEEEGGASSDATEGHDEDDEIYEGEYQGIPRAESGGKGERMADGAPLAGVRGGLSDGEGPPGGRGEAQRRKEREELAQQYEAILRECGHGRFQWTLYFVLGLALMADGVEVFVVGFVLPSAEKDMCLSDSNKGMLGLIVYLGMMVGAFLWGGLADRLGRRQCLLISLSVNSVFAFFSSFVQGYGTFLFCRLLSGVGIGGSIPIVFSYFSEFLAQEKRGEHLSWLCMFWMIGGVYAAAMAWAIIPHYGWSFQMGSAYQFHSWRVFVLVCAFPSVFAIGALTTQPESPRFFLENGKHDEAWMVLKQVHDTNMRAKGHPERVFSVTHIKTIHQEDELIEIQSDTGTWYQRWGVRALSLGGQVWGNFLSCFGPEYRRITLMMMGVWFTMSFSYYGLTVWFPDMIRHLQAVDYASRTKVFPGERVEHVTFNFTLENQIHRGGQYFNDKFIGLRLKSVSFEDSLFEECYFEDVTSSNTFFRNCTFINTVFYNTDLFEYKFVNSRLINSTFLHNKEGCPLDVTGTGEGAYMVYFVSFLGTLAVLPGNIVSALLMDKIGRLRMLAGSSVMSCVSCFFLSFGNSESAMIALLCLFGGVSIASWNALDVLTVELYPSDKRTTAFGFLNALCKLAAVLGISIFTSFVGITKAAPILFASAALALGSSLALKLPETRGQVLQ
Sequence of SV2A (Homo sapiens, UniProt Q7L0J3) (Q7L0J3 whole entry, species assumed): as the sequence (Q7L0J3 whole entry) above
T1 sequence (Q02563 whole entry): as the sequence (Q7L0J3 whole entry) above, with D53E, S62A, T71A, E144D, A154T, G440S, S482A, I572V, M634L counted along it

- time to reach steady state [1]: 8 to 10 days
- receptor occupancy at 0.1 mg/kg [2]: 20 to 50%
- affinity of binding to SV2A (levetiracetam site) [4]: high affinity
- displacement of the binding of levetiracetam to SV2A ([4]; in vitro): competitively displaces
- receptor occupancy ([6]; 1 mg single oral dose, 22 h): below level of detection
- receptor occupancy ([6]; 1 mg single oral dose, tmax (2 h)): 25% and 21%
- receptor occupancy ([6]; 2 mg single oral dose, 22 h): 19% and 20%
- receptor occupancy ([6]; 2 mg single oral dose, tmax (2 h)): 42% and 39%
- receptor occupancy ([6]; 10 mg single oral dose, 22 h): 46% and 50%
- receptor occupancy ([6]; 10 mg single oral dose, tmax (2 h)): 68% and 69%
- receptor occupancy ([6]; 20 mg single oral dose, 26 h): 56% and 66%
- receptor occupancy ([6]; 20 mg single oral dose, tmax (2 h)): 76%
- emax of PK/occupancy model (mean) ([6]; humans): 84.9
- EC50 ([6]; humans, plasma concentration, read-out: EC50, plasma concentration vs SV2A occupancy (PK/occupancy model, mean) (converted)): 75.3 nM
Structure (SMILES): O=C1C[C@H](c2cc(F)c(F)c(F)c2)CN1Cn1ncnc1Cl [compound of example 1, (4R)-1-[(5-chloro-1H-1,2,4-triazol-1-yl)methyl]-4-(3,4,5-trifluorophenyl)pyrrolidin-2-one]
- anti-convulsant activity [3]: without anti-convulsant activity
- effect on the anti-convulsant effect of levetiracetam [3]: competitively inhibits
- pro-cognitive effects [5]: possesses pro-cognitive effects
